Settings: 101.33 kPa, Crystal, Vacuum adiabatic calorimetry

O=P([O-])([O-])[O-].[Lu+3] [lutetium phosphate]
Settings	molar entropy [J/K/mol]
6 K	0.012
8 K	0.0284
10 K	0.0553
12 K	0.095
14 K	0.152
16 K	0.226
18 K	0.322
20 K	0.441
25 K	0.858
30 K	1.47
35 K	2.28
40 K	3.29
45 K	4.48
50 K	5.82
55 K	7.3
60 K	8.89
65 K	10.58
70 K	12.33
75 K	14.15
80 K	16.02
85 K	17.93
90 K	19.88
95 K	21.85
100 K	23.84
110 K	27.89
120 K	31.97
130 K	36.07
140 K	40.18
150 K	44.27
160 K	48.34
170 K	52.38
180 K	56.34
190 K	60.33
200 K	64.24
210 K	68.09
220 K	71.89
230 K	75.64
240 K	79.34
250 K	82.98
260 K	86.56
270 K	90.09
280 K	93.57
290 K	96.99
300 K	100.4
310 K	103.7
320 K	106.9

Reference: the NIST ThermoML archive (doi:10.1016/j.tca.2006.05.019)
